According to ChEMBL document CHEMBL5344458, “AI in Pharma: Transforming Drug Discovery and Strategic Management with MYC-Modulating Compounds and BET Protein Inhibitors” (ACS Med Chem Lett, 2024):

Tests used:
[1] = Oral bioavailability in Sprague-Dawley rat at 5 mg/kg administration by LC-MS/MS analysis; format: ADME, organism-based; details: in vivo
[2] = Half life in Sprague-Dawley rat at 1 mg/kg,iv administration by LC-MS/MS analysis; format: ADME, organism-based; details: in vivo

CNC(=O)c1[nH]c(C(=O)NC2CCC2)cc1OC(C)c1ccccc1 (stereo not drawn)
bioavailability [1]: 66% | half-life [2]: 54 min

CNC(=O)c1[nH]c(C(=O)NC2CC2)cc1O[C@@H](C)c1ccccc1F
bioavailability [1]: 70%

CNC(=O)c1[nH]c(C(=O)NC2CCC2)cc1OC(C)c1ccccc1F (stereo not drawn)
bioavailability [1]: 58% | half-life [2]: 30 min

CCNC(=O)c1cc(OC(C)c2ccc(Cl)cc2)c(C(=O)NC)[nH]1 (stereo not drawn)
bioavailability [1]: 30% | half-life [2]: 66 min

CCNC(=O)c1cc(OC(C)c2ccccc2F)c(C(=O)NC)[nH]1 (stereo not drawn)
bioavailability [1]: 46% | half-life [2]: 24 min

CNC(=O)c1[nH]c(C(=O)NC2CCC2)cc1OC(C)c1ccc(Cl)cc1 (stereo not drawn)
bioavailability [1]: 47% | half-life [2]: 24 min

CNC(=O)c1[nH]c(C(=O)NC2CCC2)cc1OC(C)c1ccc(Cl)cc1F (single isomer, unassigned)
bioavailability [1]: 65%

CNC(=O)c1[nH]c(C(=O)NC2COC2)cc1OC(C)c1ccc(Cl)cc1 (stereo not drawn)
bioavailability [1]: 15% | half-life [2]: 36 min

CNC(=O)c1[nH]c(C(=O)N[C@H]2CC[C@H](O)CC2)cc1OC(C)c1ccc(Cl)cc1F (stereo partly drawn)
bioavailability [1]: 66% | half-life [2]: 84 min

CCNC(=O)c1cc(OC(C)c2ccc(Cl)cc2F)c(C(=O)NC)[nH]1 (stereo not drawn)
bioavailability [1]: 69% | half-life [2]: 18 min
